The values below come from publication PMC7602742, “Physiologically-Based Pharmacokinetic/Pharmacodynamic Model of MBQ-167 to Predict Tumor Growth Inhibition in Mice” (Pharmaceutics, 2020).

The conditions of data set [1]: cited from earlier work.
Data set [2] deals with Cdc42. Also noted: method as in PMID 28450422. To be noted: inhibition of GTPase activation; read-out: half-maximal inhibitory concentration (IC50) for Cdc42; cited from earlier work.
Data set [3] has as its system mammary fat pad tumor and metastases. To be noted: cited from earlier work.
Data set [4] can be described thus: Metabolism on incubation in liver microsomes. It is filed as in vitro ADME. To be noted: incubated in liver microsomes. The text has this:
(§1) Due to the limited information of any active process in MBQ-167 renal excretion and/or tubular reabsorption, it was assumed that renal excretion was only mediated by glomerular filtration.
On the technique in general: Liver microsomes are a subcellular fraction often used to study metabolism.

Data set [5] has as its system GFP-MDA-MB-231 (TNBC) mammary fat pad tumors. Nature of the data set: Triple Negative tumor growth study (observed). The format is in vivo, athymic nude (nu/nu) mice. To be noted: 10 mg/kg BW IP three times a week for 108 days. How it is done:
As published elsewhere, female athymic nude (nu/nu) mice, 4 to 5 weeks old (Charles River Laboratories, Inc., Wilmington, MA, USA) were maintained under pathogen-free conditions in HEPA-filtered cages (5 mice per cage) under controlled light (12 h light and dark cycle), temperature (22–24 °C), and humidity (25%).
Mammary fat pad tumors were established using green fluorescent protein (GFP)-tagged MDA-MB-435 (HER2++) cells in Matrigel (BD Biosciences, San Jose, CA, USA) or GFP-MDA-MB-231 (TNBC) cells by injecting at the fourth right mammary fat pad under isofluorane inhalation (1–3% in oxygen using an inhalation chamber at 2 L/min) to produce orthotopic primary tumors. […]
Mammary tumor growth was quantified as changes in the integrated density of green fluorescent protein (GFP) fluorescence. […] The FluorVivo small animal in vivo imaging system (INDEC Systems, Inc., Santa Clara, CA, USA) was used for whole body imaging of GFP fluorescence. Tumor fluorescence intensities were analyzed using Image J software (National Institutes of Health, Bethesda, MD, USA, 2019, Version 1.52q 13). Relative tumor growth was calculated as the integrated density of fluorescence of each tumor on each day of imaging relative to the integrated density of fluorescence of the same tumor on day 1 of treatment administration, relative to vehicle controls.

Data set [6] can be described thus: Tumor pharmacokinetics in 4T1 tumor-bearing mice (observed). It is filed as in vivo. To be noted: BALB/c, mouse, tumor (4T1), single IP 10 mg/kg. As to the method: Thirty-five BALB/c mice were injected with 2.5 × 10^5 4T1 murine metastatic breast cancer cells at the mammary fat pad under isoflurane inhalation (1–3% in oxygen using an inhalation chamber at 2 L/min) to produce primary tumors, as described. Following IP treatment with a single dose of MBQ-167 (10 mg/kg), five mice/group were sacrificed by cervical dislocation at 0.5, 1, 3, 6, 9,12, and 24 h. Following sacrifice, tumors were collected and flushed with normal saline, individually wrapped in aluminum foil, snap-frozen in liquid nitrogen, and stored frozen at −80 °C until use.
Tumor samples were extracted by liquid-liquid extraction method, as previously described by. Briefly, frozen tumors were thawed, weighed (100 mg), and homogenized using the Polytron PT 2100 instrument in pH 7.4 saline (1:4 w/v). […]
We used a validated bioanalytical method using supercritical fluid chromatography coupled with tandem mass spectrometry to quantify MBQ-167 in tumors and tissues, as previously described. […]
The final MBQ-167 PBPK model was verified through both graphical and numerical analysis. […] The performance of the MBQ-167 PBPK model was assessed by the fold error at each tissue, which referred to the ratio of the predicted AUC0-t or Cmax to the observed AUC0-t or Cmax, respectively (Equation (1)). AUC0-t was calculated by the trapezoidal rule. […]

The nature of data set [7]: Intrinsic clearance from in vitro hepatocytes. To be noted: in vitro determined, read-out: Hep intrinsic CL. It is filed as in vitro ADME.
Excerpt: as §1

Details of data set [8]: method as in PMID 31720502. To be noted: cited from earlier work.
Data set [9] is described as follows: Plasma and tissue pharmacokinetics after single IP dose (observed). To be noted: female, BALB/c, mouse, single IP 10 mg/kg, mice; for AUC(0-t): read-out: AUC obs (AUC0-t). The format is in vivo. As to the method:
All animal studies were conducted under approved animal protocols (#A8180117, #A8180112) by the University of Puerto Rico Medical Sciences Campus Institutional Animal Care and Use Committee, in accordance with the principles and procedures outlined in the NIH Guideline for the Care and Use of Laboratory Animals. Four to five-week-old female BALB/c mice (Charles River Laboratories, Inc. Wilmington, MA, USA) were housed under pathogen-free conditions in HEPA-filtered cages and kept on a 12 h light/dark cycle, and controlled temperature (22–24 °C), and humidity (25%). Food and water were given ad libitum. MBQ-167 was prepared as a stock solution of 2 mg/mL in Cremophor®:ethanol:PBS (12.5:12.5:75) solution. Each mouse was administered a single 0.1 mL dose of MBQ-167 (in 12.5% ethanol, 12.5% Cremophor®, 75% phosphate buffered saline, pH 7.4) that corresponded to 10 mg/kg body weight (BW) by IP injection.
We used a validated bioanalytical method using supercritical fluid chromatography coupled with tandem mass spectrometry to quantify MBQ-167 in tumors and tissues, as previously described. The analysis was performed on an Acquity UPC^2 system (Waters Corp., Milford, MA, USA) coupled to a triple quadrupole tandem mass spectrometer (MS/MS). An Acquity UPC^2 BEH (3.0 × 100 mm^2, 1.7 μm) column was used for separation purposes.
The final MBQ-167 PBPK model was verified through both graphical and numerical analysis. Experimental and predicted longitudinal plasma concentration- (Cp) and tissue concentration- (Ct) profiles were generated, including the 95% confidence intervals (95% CI) of the observations at each sampling time and the mean predicted concentrations. LSA was performed to evaluate the relative impact of B/P, fu, CLR, CLtumor and PS in the plasma PK exposure parameters (AUC0-t and Cmax). The performance of the MBQ-167 PBPK model was assessed by the fold error at each tissue, which referred to the ratio of the predicted AUC0-t or Cmax to the observed AUC0-t or Cmax, respectively (Equation (1)). AUC0-t was calculated by the trapezoidal rule. Both graphical and numerical analyses were performed in RStudio version 1.2.5019 (Boston, MA, USA, 2019) with R version 3.5.1 (GNU project). (1) Fold ERROR PK parameter=Predicted PK parameter/Observed PK parameter

Data set [10] has as its target CYP2C19 (Homo sapiens, UniProt P33261). Nature of the data set: CYP inhibition. The format is in vitro ADME.
Excerpt: as §1

Data set [11] deals with CYP2C9 (Homo sapiens, UniProt P11712). Nature of the data set: CYP inhibition. It is filed as in vitro ADME.
CYP2C9, sequence (P11712 whole entry): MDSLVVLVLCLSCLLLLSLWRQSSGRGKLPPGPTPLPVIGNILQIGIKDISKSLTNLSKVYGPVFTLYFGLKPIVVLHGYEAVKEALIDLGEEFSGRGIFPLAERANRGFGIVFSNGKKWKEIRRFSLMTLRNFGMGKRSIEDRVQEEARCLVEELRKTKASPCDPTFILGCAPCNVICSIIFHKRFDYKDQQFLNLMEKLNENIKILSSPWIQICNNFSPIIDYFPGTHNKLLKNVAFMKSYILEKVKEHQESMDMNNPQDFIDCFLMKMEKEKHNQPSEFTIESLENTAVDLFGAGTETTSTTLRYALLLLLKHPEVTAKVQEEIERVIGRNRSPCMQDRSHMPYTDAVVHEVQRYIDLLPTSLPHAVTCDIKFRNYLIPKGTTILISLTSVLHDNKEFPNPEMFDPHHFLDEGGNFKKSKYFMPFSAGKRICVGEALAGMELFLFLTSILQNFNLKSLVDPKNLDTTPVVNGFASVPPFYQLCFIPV
Excerpt: as §1

The target of data set [12] is CYP3A4 (Homo sapiens, UniProt P08684). Nature of the data set: CYP inhibition. The format is in vitro ADME.
CYP3A4, sequence (P08684 whole entry): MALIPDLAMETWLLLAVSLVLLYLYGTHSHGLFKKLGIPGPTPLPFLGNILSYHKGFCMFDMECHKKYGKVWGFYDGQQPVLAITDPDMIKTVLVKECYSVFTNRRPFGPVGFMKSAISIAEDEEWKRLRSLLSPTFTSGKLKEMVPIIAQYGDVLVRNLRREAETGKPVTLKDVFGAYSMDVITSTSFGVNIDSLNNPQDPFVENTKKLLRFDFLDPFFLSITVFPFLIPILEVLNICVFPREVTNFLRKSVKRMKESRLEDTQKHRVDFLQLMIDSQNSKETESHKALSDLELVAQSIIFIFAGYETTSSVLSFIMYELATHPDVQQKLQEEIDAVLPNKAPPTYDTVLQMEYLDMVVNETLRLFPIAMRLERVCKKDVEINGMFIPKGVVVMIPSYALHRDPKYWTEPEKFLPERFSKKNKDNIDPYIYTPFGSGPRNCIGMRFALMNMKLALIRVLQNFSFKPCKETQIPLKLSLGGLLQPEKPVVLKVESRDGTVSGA
Excerpt: as §1

The target of data set [13] is T1, CYP1A2 (Homo sapiens, UniProt P05177).
T1 sequence (P05177 1-516): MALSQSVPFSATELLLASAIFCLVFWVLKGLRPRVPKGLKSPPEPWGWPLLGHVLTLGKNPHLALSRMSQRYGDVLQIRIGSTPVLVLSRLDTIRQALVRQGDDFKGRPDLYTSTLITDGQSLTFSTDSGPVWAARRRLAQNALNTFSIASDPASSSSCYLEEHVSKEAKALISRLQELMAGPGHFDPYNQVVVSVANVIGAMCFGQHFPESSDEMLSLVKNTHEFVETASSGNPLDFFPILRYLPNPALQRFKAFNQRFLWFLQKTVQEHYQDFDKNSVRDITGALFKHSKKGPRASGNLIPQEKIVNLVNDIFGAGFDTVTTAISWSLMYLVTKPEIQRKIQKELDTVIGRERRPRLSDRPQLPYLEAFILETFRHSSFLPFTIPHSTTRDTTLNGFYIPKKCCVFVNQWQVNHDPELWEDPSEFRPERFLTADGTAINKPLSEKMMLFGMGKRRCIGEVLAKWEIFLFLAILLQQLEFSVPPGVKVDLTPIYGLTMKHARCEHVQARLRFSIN
The data set can be described thus: CYP inhibition. It is filed as in vitro ADME.
Excerpt: as §1

Data set [14] in a line: Physicochemical properties (PBPK model inputs). To be noted: model input. The text has this:
The molecular weight of MBQ-167 is 338.414 g/mol and the water partition coefficient (logPoctanol:water) ratio is 4.944. […] The fu in plasma was estimated to 0.02. B/P ratio was initially estimated in the base PBPK model development phase and then optimized using a local sensitivity analysis (LSA) with a final value of 1.8.

CYP2C19, sequence (P33261 whole entry): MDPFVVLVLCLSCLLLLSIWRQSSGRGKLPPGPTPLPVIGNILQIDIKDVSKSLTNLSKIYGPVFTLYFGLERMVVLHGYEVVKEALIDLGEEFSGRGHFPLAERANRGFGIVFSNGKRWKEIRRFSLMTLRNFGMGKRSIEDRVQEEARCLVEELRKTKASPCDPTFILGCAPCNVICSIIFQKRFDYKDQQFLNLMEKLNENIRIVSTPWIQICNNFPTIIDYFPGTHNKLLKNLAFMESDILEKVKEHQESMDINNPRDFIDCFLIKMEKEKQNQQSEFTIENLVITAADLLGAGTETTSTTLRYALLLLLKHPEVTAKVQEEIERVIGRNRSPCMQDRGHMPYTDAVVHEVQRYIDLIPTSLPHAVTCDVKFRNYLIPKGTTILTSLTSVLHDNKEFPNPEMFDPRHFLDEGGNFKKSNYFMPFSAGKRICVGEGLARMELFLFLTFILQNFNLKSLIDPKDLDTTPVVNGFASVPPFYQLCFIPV

Consider `O=c1cc(CN2CCOCC2)occ1OCCCCCSc1ccnc2cc(C(F)(F)F)ccc12` [EHT1864], for which the t1/2 in [1] is recorded as 1.65 h.

Regarding `CCn1c2ccccc2c2cc(Nc3ccnc(NCCCN4CCOCC4)n3)ccc21` [EHop-016], in [1], the t1/2 is 5.73 h.

The term Cmax denotes the peak of the concentration-time curve. Usually pKa stands for the pH at which an ionisable group is half protonated. On to `CCn1c2ccccc2c2cc(-n3nncc3-c3ccccc3)ccc21` [MBQ-167], for which, in data set [2], the IC50 was […]. The effect on metastases result in [3] (10 mg/kg BW, mice) was “total inhibition of metastases”. In addition, the “start of mammary fat pad tumor size reduction after treatment” value in data set [3] (10 mg/kg BW, mice) was “approximately 3 weeks”. Also, the toxicity in vivo entry in data set [3] (preclinical studies) is listed as “without apparent toxicity”. The metabolites formed result in data set [4] is on record as “up to nine metabolites”. Besides, the “observed relative reduction in the final tumor size” value in data set [5] was 87.0%. In addition, the Cmax was 1240 ng/mL in [6]; 841 ng/mL in data set [9] (heart); 11200 ng/mL in data set [9] (kidneys); 4790 ng/mL in data set [9] (liver); 1540 ng/mL in data set [9] (lung); 840 ng/mL in data set [9] (plasma). This molecule also displayed a Cmax in data set [9] (spleen) of 1690 ng/mL. The AUC(0-t) in data set [6] (read-out: AUC obs (AUC0-t)) turned out to be 10300 ng·h/mL; in [9] (heart) it was 949 ng·h/mL; in data set [9] (kidneys) it was 34300 ng·h/mL; in data set [9] (liver), 8390 ng·h/mL; in data set [9] (lung) it was 1890 ng·h/mL; in data set [9] (plasma), 1420 ng·h/mL. In addition, the AUC(0-t) in [9] (spleen) amounted to 3980 ng·h/mL. Moreover, the hepatocyte CLint in data set [7] was found to be 79 µL/min/1e6 cells. For the same molecule, in data set [8] (mice of 20 g body weight), the “volume of distribution reported in the literature” value is listed as 400 mL. Further, the “systemic plasma clearance (reported/observed)” value in data set [8] (mice) is recorded as 2.15 mL/min. Also, the CYP2C19 inhibition result in data set [10] is reported as “inhibits”. Further, the CYP2C9 inhibition entry in data set [11] was “inhibits”. For the same molecule, the CYP3A4 inhibition entry in [12] is “inhibits”. In addition, the CYP1A2 inhibition result in [13] is reported as “inhibits”. Besides, in data set [14], the “Compound Type” value is given as “Monoprotic Base”. The pKa in [14] (source not stated) turned out to be 0.27. Further, in [14] (octanol:water, source not stated), the “logPo:w” value turned out to be 4.944.
